Reference: the NIST ThermoML archive (doi:10.1016/j.jct.2009.08.009)
± gives the expanded uncertainty stated by the source.

Assay: xn = mol fraction of the nth substance listed
Conditions: 101 kPa, Liquid; for viscosity: Capillary tube (Ostwald / Ubbelohde) method; for speed of sound: Sing-around technique in a fixed-path interferometer; for mass density: Vibrating tube method

CCOCCOCCO [3,6-dioxa-1-octanol] + CCCCCCO
Conditions	mass density, 303.15 K [kg/m3]	mass density, 308.15 K [kg/m3]	speed of sound, 303.15 K [m/s]	speed of sound, 308.15 K [m/s]	viscosity, 303.15 K [mPa·s]	viscosity, 308.15 K [mPa·s]
x1 = 0.0515	820.874 ± 0.14	817.198 ± 0.14	1288.7 ± 0.8	1272.1 ± 0.8	3.381 ± 0.021	2.901 ± 0.018
x1 = 0.1039	830.282 ± 0.14	826.564 ± 0.14	1291.3 ± 0.8	1274.7 ± 0.8	3.154 ± 0.019	2.72 ± 0.017
x1 = 0.1456	838.004 ± 0.14	834.246 ± 0.14	1293.9 ± 0.8	1277.3 ± 0.8	3.026 ± 0.019	2.631 ± 0.016
x1 = 0.2078	849.482 ± 0.13	845.669 ± 0.13	1297.6 ± 0.8	1280 ± 0.8	2.879 ± 0.018	2.503 ± 0.016
x1 = 0.2501	857.352 ± 0.13	853.504 ± 0.13	1300.7 ± 0.8	1284.2 ± 0.8	2.809 ± 0.017	2.443 ± 0.015
x1 = 0.3127	869.225 ± 0.13	865.322 ± 0.13	1305.3 ± 0.8	1288.8 ± 0.8	2.726 ± 0.017	2.374 ± 0.015
x1 = 0.3517	876.678 ± 0.12	872.742 ± 0.12	1308.7 ± 0.8	1292.1 ± 0.8	2.682 ± 0.017	2.342 ± 0.015
x1 = 0.5241	910.37 ± 0.12	906.299 ± 0.12	1325.3 ± 0.8	1308.8 ± 0.8	2.584 ± 0.016	2.266 ± 0.014
x1 = 0.6227	930.226 ± 0.11	926.073 ± 0.11	1337.1 ± 0.8	1320.6 ± 0.8	2.605 ± 0.016	2.278 ± 0.015
x1 = 0.7217	950.745 ± 0.1	946.516 ± 0.11	1350.8 ± 0.8	1334.2 ± 0.8	2.647 ± 0.016	2.297 ± 0.015
x1 = 0.8227	972.261 ± 0.099	967.953 ± 0.1	1366.7 ± 0.9	1350 ± 0.8	2.693 ± 0.017	2.349 ± 0.015
x1 = 0.915	992.202 ± 0.094	987.826 ± 0.096	1382.6 ± 0.9	1365.8 ± 0.9	2.801 ± 0.017	2.445 ± 0.015
x1 = 1	–	–	–	–	2.862 ± 0.018	2.507 ± 0.016
